From publication PMC5344255, “Design, Synthesis and Biochemical Evaluation of Novel Selective Estrogen Receptor Ligand Conjugates Incorporating an Endoxifen-Combretastatin Hybrid Scaffold” (Biomedicines, 2016)
Several values for one entry are separate records, joined by “and”; a condition that tells them apart may be missing. Equal values may be shown once. Read-outs that look alike come from different tables or passages of the source. Marks after values point to notes of the source that are not given here.

Assays:
IGROV1 = experiment: NCI 60 cell line screen; assay type: cell-based, human; settings: IGROV1 (Ovarian Cancer); one-dose 10 µM
M14 = experiment: NCI 60 cell line screen; assay type: cell-based, human; settings: M14 (Melanoma); one-dose 10 µM
HCT-15 = experiment: NCI 60 cell line screen; assay type: cell-based, human; settings: HCT-15 (Colon Cancer)
UO-31 = experiment: NCI 60 cell line screen; assay type: cell-based, human; settings: UO-31 (Renal Cancer); one-dose 10 µM
NCI-H226 = experiment: NCI 60 cell line screen; assay type: cell-based, human
NCI 60 cell lines = experiment: NCI 60 cell line screen, values over the panel; assay type: cell-based; settings: Homo sapiens
UACC-62 = experiment: NCI 60 cell line screen; assay type: cell-based, human; settings: UACC-62 (Melanoma); one-dose 10 µM
RPMI-8226 = experiment: NCI 60 cell line screen; assay type: cell-based, human; settings: RPMI-8226 (Leukemia)
[1] = system: MCF-7 human breast cancer cells; experiment: Lactate dehydrogenase (LDH) cytotoxicity assay in MCF-7; assay type: cell-based; settings: % cell lysis at 10 µM
Method in brief: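 Cells seeded at 1 × 10^4 per well and grown 24 h, then dosed with compounds over 1 nM–50 μM. Cell lysis quantified as released cytoplasmic LDH using the CytoTox 96 nonradioactive cytotoxicity assay.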

UACC-257 = experiment: NCI 60 cell line screen; assay type: cell-based, human; settings: UACC-257 (Melanoma); one-dose 10 µM
NCI/ADR-RES = experiment: NCI 60 cell line screen; assay type: cell-based, human; settings: NCI/ADR-RES (Ovarian Cancer); one-dose 10 µM
SF539 = experiment: NCI 60 cell line screen; assay type: cell-based, human; settings: SF539 (CNS Cancer)
SW-620 = experiment: NCI 60 cell line screen; assay type: cell-based, human; settings: SW-620 (Colon Cancer)
K-562 = experiment: NCI 60 cell line screen; assay type: cell-based, human; settings: K-562 (Leukemia)
[2] = system: MCF-7 human breast cancer cells; experiment: MTT assay for antiproliferative effects in MCF-7; assay type: cell-based; settings: Homo sapiens, MCF7, MCF-7, MTT assay
Method in brief: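 MCF-7 grown in MEM and MDA-MB-231 in D-MEM, each with 10% FBS, at 37 °C and 5% CO2. Viability by MTT reduction to formazan by metabolically active cells, plotted against compound concentration. Three experiments in triplicate, given as mean ± SEM.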

NCI-H23 = experiment: NCI 60 cell line screen; assay type: cell-based
HT29 = experiment: NCI 60 cell line screen; assay type: cell-based, human; settings: HT29 (Colon Cancer)
SK-MEL-5 = experiment: NCI 60 cell line screen; assay type: cell-based
LOX IMV1 = experiment: NCI 60 cell line screen; assay type: cell-based, human; settings: LOX IMV1 (Melanoma); one-dose 10 µM
EKVX = experiment: NCI 60 cell line screen; assay type: cell-based, human; settings: EKVX (Non-Small Cell Lung Cancer)
SR = experiment: NCI 60 cell line screen; assay type: cell-based, human; settings: SR (Leukemia)
[3] = system: Ishikawa cell line of human endometrial adenocarcinoma cells; experiment: Ishikawa assay, estrogen stimulation of alkaline phosphatase activity; assay type: cell-based
Procedure: The Ishikawa assay is used to measure estrogen stimulation of alkaline phosphatase enzyme activity (AlkP) by the Ishikawa cell line of human endometrial adenocarcinoma cells. The Ishikawa assay provides a measure of the agonist activity of a compound. […] The assay was carried out following the method of Littlefield et al.. The batch of Ishikawa cells were obtained as a gift from Professor R. Hochberg—who developed the alkaline phosphatase assay in Yale University, CT, USA.
The Ishikawa assay is used to measure estrogen stimulation of alkaline phosphatase enzyme activity (AlkP) by the Ishikawa cell line of human endometrial adenocarcinoma cells. […] The conjugate was dosed in duplicate.

MALME-3M = experiment: NCI 60 cell line screen; assay type: cell-based, human; settings: MALME-3M (Melanoma); one-dose 10 µM

## CCC(=C(c1ccc(O)cc1)c1ccc(OCCN(C)C(=O)/C(=C/c2ccc(OC)c(O)c2)c2cc(OC)c(OC)c(OC)c2)cc1)c1ccc(O)cc1 (mixture of isomers) [Compound 28, (E)-N-(2-{4-[(E/Z)-1,2-Bis-(4-hydroxyphenyl)but-1-enyl]-phenoxy}ethyl)-3-(3-hydroxy-4-methoxyphenyl)-N-methyl-2-(3,4,5-trimethoxyphenyl)acrylamide]
IGROV1
  GI% (10^−5 M): 2.3%
M14
  GI% (10^−5 M): 1.68%
HCT-15; one-dose 10 µM
  GI% (10^−5 M): 100 ^d,k %
HCT-15; Homo sapiens, five-dose screen
  GI50: 1.53 µM
UO-31
  GI% (10^−5 M): 2.66%
NCI-H226; Homo sapiens, NCI-H226 (Non-Small Cell Lung Cancer), five-dose screen
  GI50: 1.18 µM
NCI-H226; NCI-H226 (Non-Small Cell Lung Cancer), one-dose 10 µM
  GI% (10^−5 M): 100 ^d,g %
NCI-H226; NCI-H226, one-dose screen 10 μM
  lethality: 73%
NCI 60 cell lines; in all but 4 cell lines of the panel, read-out: LC50 (the source's name)
  CC50: > 50 µM
NCI 60 cell lines; read-out: MG-MID, mean GI50
  GI50: 1.45 µM
NCI 60 cell lines; read-out: log GI50 (mean) (converted)
  GI50: 1.62 µM
NCI 60 cell lines; read-out: mean growth inhibition value
  inhibition at 10 µM: 98.7%
UACC-62
  GI% (10^−5 M): 0.922%
RPMI-8226; Homo sapiens, five-dose screen
  GI50: 0.896 µM
RPMI-8226; one-dose 10 µM
  GI% (10^−5 M): 91% and 90.65%
[1]
  % Cell Death at 10 μM: 17%
UACC-257
  GI% (10^−5 M): 2.83%
NCI/ADR-RES
  GI% (10^−5 M): 6.02%
SF539; Homo sapiens, SF-539, five-dose screen
  GI50: 1.18 µM
SF539; one-dose 10 µM
  GI% (10^−5 M): 100 ^d,n %
SW-620; Homo sapiens, five-dose screen
  GI50: 1.21 µM
SW-620; one-dose 10 µM
  GI% (10^−5 M): 81.32%
K-562; Homo sapiens, K562, five-dose screen
  GI50: 2.57 µM
K-562; one-dose 10 µM
  GI% (10^−5 M): 86.1%
[2]; mean of at least three experiments in triplicate
  IC50: 5 nM
[2]; values in nM
  IC50: 0.005 nM
NCI-H23; Homo sapiens, NCI-H23
  GI50: 2.19 µM
NCI-H23; Homo sapiens, NCI-H23, five-dose screen
  LC50: 48.9 µM
NCI-H23; NCI-H23 (Non-Small Cell Lung Cancer), one-dose 10 µM
  GI% (10^−5 M): 97% and 96.76%
HT29; one-dose 10 µM
  GI% (10^−5 M): 100 ^d,l %
HT29; Homo sapiens, HT-29, five-dose screen
  GI50: 1.16 µM
SK-MEL-5; Homo sapiens, five-dose screen, read-out: LC50 (the source's name)
  CC50: 34.5 µM
SK-MEL-5; one-dose screen 10 μM
  lethality: 60%
LOX IMV1
  GI% (10^−5 M): 1.55%
EKVX; one-dose 10 µM
  GI% (10^−5 M): 85.11%
EKVX; Homo sapiens, five-dose screen
  GI50: 2.01 µM
SR; Homo sapiens, five-dose screen
  GI50: 2.35 µM
SR; one-dose 10 µM
  GI% (10^−5 M): 69.03%
[3]; compound dosed individually
  estrogenic activity (alkaline phosphatase stimulation): does not display estrogenic stimulation in the cell line
[3]; dosed with 1 nM estradiol spike
  estrogen stimulation (alkaline phosphatase) in mixture with estradiol: a reduction in estrogenic stimulation at low concentrations and a more pronounced reduction in estrogen stimulation over the range of concentrations when compared with the Tamoxifen mixture
MALME-3M
  GI% (10^−5 M): 1.76%
